This passage reports pest or weed control, melting point and inhibition of growth results from patent publication US20190345150A1, “MICROBIOCIDAL OXADIAZOLE DERIVATIVES” (SYNGENTA PARTICIPATIONS AG, priority 2016, published 2019).

Data set [1] relates to Puccinia recondita f. Sp. Tritici. Briefly: Puccinia recondita f. sp. tritici / wheat / leaf disc curative (brown rust). The format is in vivo. The conditions noted are these: foliar, 24 h, 200 ppm in the applied formulation, wheat leaf segments cv. Kanzler, curative (applied 1 day after inoculation), compared to untreated control, read-out: disease control. The method, then: Leaf disks or leaf segments of various plant species are cut from plants grown in a greenhouse. The cut leaf disks or segments are placed in multiwell plates (24-well format) onto water agar. The leaf disks are sprayed with a test solution before (preventative) or after (curative) inoculation. Compounds to be tested are prepared as DMSO solutions (max. 10 mg/ml) which are diluted to the appropriate concentration with 0.025% Tween20 just before spraying. The inoculated leaf disks or segments are incubated under defined conditions (temperature, relative humidity, light, etc.) according to the respective test system. A single evaluation of disease level is carried out 3 to 14 days after inoculation, depending on the pathosystem. Percent disease control relative to the untreated check leaf disks or segments is then calculated. Wheat leaf segments cv. Kanzler are placed on agar in multiwell plates (24-well format). The leaf segments are then inoculated with a spore suspension of the fungus. Plates were stored in darkness at 19° C. and 75% relative humidity. The formulated test compound diluted in water was applied 1 day after inoculation. The leaf segments were incubated at 19° C. and 75% relative humidity under a light regime of 12 hours light/12 hours darkness in a climate cabinet and the activity of a compound was assessed as percent disease control compared to untreated when an appropriate level of disease damage appears in untreated check leaf segments (6 to 8 days after application).

For data set [2] the test system is unchanged. Briefly: Puccinia recondita f. sp. tritici / wheat / leaf disc preventative (brown rust). Format: in vivo. Particulars: foliar, 200 ppm in the applied formulation, wheat leaf segments cv. Kanzler, preventative (inoculated 1 day after application), compared to untreated control, read-out: disease control. The method, then:
Leaf disks or leaf segments of various plant species are cut from plants grown in a greenhouse. The cut leaf disks or segments are placed in multiwell plates (24-well format) onto water agar. The leaf disks are sprayed with a test solution before (preventative) or after (curative) inoculation. Compounds to be tested are prepared as DMSO solutions (max. 10 mg/ml) which are diluted to the appropriate concentration with 0.025% Tween20 just before spraying. The inoculated leaf disks or segments are incubated under defined conditions (temperature, relative humidity, light, etc.) according to the respective test system. A single evaluation of disease level is carried out 3 to 14 days after inoculation, depending on the pathosystem. Percent disease control relative to the untreated check leaf disks or segments is then calculated. Wheat leaf segments cv. Kanzler were placed on agar in multiwell plates (24-well format) and sprayed with the formulated test compound diluted in water. The leaf disks were inoculated with a spore suspension of the fungus 1 day after application. The inoculated leaf segments were incubated at 19° C. and 75% relative humidity (rh) under a light regime of 12 hours light/12 hours darkness in a climate cabinet and the activity of a compound was assessed as percent disease control compared to untreated when an appropriate level of disease damage appears in untreated check leaf segments (7 to 9 days after application).

For data set [3], the system named is Glomerella laqenarium (Colletotrichum laqenarium). Briefly: Glomerella lagenarium liquid culture / cucumber / preventative (anthracnose). Format: cell-based. Particulars: 20 ppm in the applied formulation, liquid culture in PDB, growth inhibition measured photometrically 3 to 4 days after application, compared to untreated control, read-out: disease control. The method, then: Mycelia fragments or conidia suspensions of a fungus prepared either freshly from liquid cultures of the fungus or from cryogenic storage, are directly mixed into nutrient broth. DMSO solutions of the test compound (max. 10 mg/ml) are diluted with 0.025% Tween20 by a factor of 50 and 10 μl of this solution is pipetted into a microtiter plate (96-well format). The nutrient broth containing the fungal spores/mycelia fragments is then added to give an end concentration of the tested compound. The test plates are incubated in the dark at 24° C. and 96% relative humidity. The inhibition of fungal growth is determined photometrically after 2 to 7 days, depending on the pathosystem, and percent antifungal activity relative to the untreated check is calculated. Conidia of the fungus from cryogenic storage are directly mixed into nutrient broth (PDB—potato dextrose broth). After placing a (DMSO) solution of test compound into a microtiter plate (96-well format), the nutrient broth containing the fungal spores is added. The test plates are incubated at 24° C. and the inhibition of growth is measured photometrically 3 to 4 days after application.

For orientation: melting point means the temperature of the solid-liquid transition. On to `Fc1ccc(OCc2ccc(-c3noc(C(F)(F)F)n3)cc2)cc1` [Compound 1.6, 3-[4-[(4-fluorophenoxy)methyl]phenyl]-5-(trifluoromethyl)-1,2,4-oxadiazole], for which the melting point fell in the range of 174 to 176 °C. The pest or weed control at 200 ppm in data set [1] is not below 80%.
The corresponding values for `FC(F)(F)c1nc(-c2ccc(COc3ccccc3)cc2)no1` [Compound 1.7, 3-[4-(phenoxymethyl)phenyl]-5-(trifluoromethyl)-1,2,4-oxadiazole] are 105 to 107 °C and not below 80%.
Take `FC(F)(F)c1nc(-c2ccc(COc3ccccn3)cc2)no1` [Compound 1.9, 3-[4-(2-pyridyloxymethyl)phenyl]-5-(trifluoromethyl)-1,2,4-oxadiazole]: the melting point is 86 to 88 °C. In addition, the pest or weed control at 200 ppm in data set [2] is not below 80%. In addition, the pest or weed control at 200 ppm in data set [1] was not below 80%. The inhibition of growth at 20 ppm in data set [3] was not below 80%.
In turn, `Fc1cccc(F)c1OCc1ccc(-c2noc(C(F)(F)F)n2)cc1` [Compound 1.10, 3-[4-[(2,6-difluorophenoxy)methyl]phenyl]-5-(trifluoromethyl)-1,2,4-oxadiazole] came in with a melting point of 66 to 68 °C. Moreover, in data set [1], the pest or weed control at 200 ppm was not below 80%.
For the compound `Fc1c(COc2ccccc2)ccc(-c2noc(C(F)(F)F)n2)c1F` [Compound 1.12, 3-[2,3-difluoro-4-(phenoxymethyl)phenyl]-5-(trifluoromethyl)-1,2,4-oxadiazole], the melting point lay within 113 to 115 °C.
`N#Cc1ccc(OCc2ccc(-c3noc(C(F)(F)F)n3)cc2)nc1` [Compound 1.14, 6-[[4-[5-(trifluoromethyl)-1,2,4-oxadiazol-3-yl]phenyl]methoxy]pyridine-3-carbonitrile] came in with a melting point of 156 to 158 °C. In addition, in data set [2], the pest or weed control at 200 ppm was not below 80%. In data set [3], the inhibition of growth at 20 ppm is not below 80%.
With `Cc1ccc(OCc2ccc(-c3noc(C(F)(F)F)n3)cc2)nc1` [Compound 1.15, 3-[4-[(5-methyl-2-pyridyl)oxymethyl]phenyl]-5-(trifluoromethyl)-1,2,4-ioxadiazole], the melting point was in the range of 141 to 143 °C. For the same compound, in data set [1], the pest or weed control at 200 ppm is not below 80%.
Consider `Cc1nnc(OCc2ccc(-c3noc(C(F)(F)F)n3)cc2)o1` [Compound 1.20, 2-methyl-5-[[4-[5-(trifluoromethyl)-1,2,4-oxadiazol-3-yl]phenyl]methoxy]-1,3,4-oxadiazole], for which the inhibition of growth at 20 ppm in data set [3] is not below 80%.
On to `FC(F)(F)c1nc(-c2ccc(COc3ccc(Br)nn3)cc2)no1` [Compound 1.21, 3-[4-[(6-bromopyridazin-3-yl)oxymethyl]phenyl]-5-(trifluoromethyl)-1,2,4-oxadiazole], for which the inhibition of growth at 20 ppm in data set [3] is not below 80%.
On the same count and under the same terms, for `Cc1cccc(OC(C)c2ccc(-c3noc(C(F)(F)F)n3)cc2)n1` (stereo not shown) [Compound 1.24, 3-[4-[1-[(6-methyl-2-pyridyl)oxy]ethyl]phenyl]-5-(trifluoromethyl)-1,2,4-oxadiazole] the value was not below 80%.
`Cc1cccc(OCc2cc(F)c(-c3noc(C(F)(F)F)n3)c(F)c2)n1` [Compound 1.25, 3-[2,6-difluoro-4-[(6-methyl-2-pyridyl)oxymethyl]phenyl]-5-(trifluoromethyl)-1,2,4-oxadiazole] returned a melting point of 65 to 66 °C. For the same compound, in data set [3], the inhibition of growth at 20 ppm is not below 80%.
As to `CC1(C)CC(OCc2cc(F)c(-c3noc(C(F)(F)F)n3)c(F)c2)=NO1` [Compound 1.26, 3-[4-[(5,5-dimethyl-4H-isoxazol-3-yl)oxymethyl]-2,6-difluoro-phenyl]-5-(trifluoromethyl)-1,2,4-oxadiazole], the pest or weed control at 200 ppm in data set [2] and in data set [1] was not below 80% each time. Further, in data set [3], the inhibition of growth at 20 ppm is not below 80%.
Turning to `Cc1cccc(OCc2cc(F)c(-c3noc(C(F)(F)F)n3)cc2F)n1` [Compound 1.27, 3-[2,5-difluoro-4-[(6-methyl-2-pyridyl)oxymethyl]phenyl]-5-(trifluoromethyl)-1,2,4-oxadiazole], the melting point fell in the range of 91 to 94 °C.
In the case of `CC(=O)OCc1ccc(-c2noc(C(F)(F)F)n2)cc1` [Compound 2.1, [4-[5-(trifluoromethyl)-1,2,4-oxadiazol-3-yl]phenyl]methyl acetate], the pest or weed control at 200 ppm in data set [2] is not below 80%. Also, the inhibition of growth at 20 ppm in data set [3] is not below 80%.
`CC(C)C(=O)OCc1ccc(-c2noc(C(F)(F)F)n2)cc1` [Compound 2.2, [4-[5-(trifluoromethyl)-1,2,4-oxadiazol-3-yl]phenyl]methyl 2-methylpropanoate]: the melting point was in the range of 48 to 50 °C. Also, in data set [3], the inhibition of growth at 20 ppm is not below 80%.
Consider `CC(C)(C)C(=O)OCc1ccc(-c2noc(C(F)(F)F)n2)cc1` [Compound 2.3, [4-[5-(trifluoromethyl)-1,2,4-oxadiazol-3-yl]phenyl]methyl 2,2-dimethylpropanoate], for which the inhibition of growth at 20 ppm in data set [3] is not below 80%.
In the case of `O=C(NCC(F)(F)F)OCc1ccc(-c2noc(C(F)(F)F)n2)cc1` [Compound 3.3, [4-[5-(trifluoromethyl)-1,2,4-oxadiazol-3-yl]phenyl]methyl N-(2,2,2-trifluoroethyl)carbamate], the pest or weed control at 200 ppm in data set [2] and in data set [1] was not below 80% throughout. Further, the inhibition of growth at 20 ppm in data set [3] is not below 80%.
For the compound `CON(C)C(=O)OCc1ccc(-c2noc(C(F)(F)F)n2)cc1` [Compound 3.4, [4-[5-(trifluoromethyl)-1,2,4-oxadiazol-3-yl]phenyl]methyl N-methoxy-N-methyl-carbamate], the inhibition of growth at 20 ppm in data set [3] is not below 80%.
Turning to `CC(OC(=O)N(C)C)c1ccc(-c2noc(C(F)(F)F)n2)cc1` (stereo not shown) [Compound 3.5, 1-[4-[5-(trifluoromethyl)-1,2,4-oxadiazol-3-yl]phenyl]ethyl N,N-dimethylcarbamate], the pest or weed control at 200 ppm in data set [2] and in data set [1] was not below 80% each time. Further, the inhibition of growth at 20 ppm in data set [3] was not below 80%.
As to `CN(C(=O)OCc1ccc(-c2noc(C(F)(F)F)n2)cc1)c1ccccn1` [Compound 3.6, [4-[5-(trifluoromethyl)-1,2,4-oxadiazol-3-yl]phenyl]methyl N-methyl-N-(2-pyridyl)carbamate], the melting point fell in the range of 110 to 112 °C.
In turn, `CNC(=O)OCc1ccc(-c2noc(C(F)(F)F)n2)cc1` [Compound 3.7, [4-[5-(trifluoromethyl)-1,2,4-oxadiazol-3-yl]phenyl]methyl N-methylcarbamate] registered a melting point of 100 to 102 °C.
In the case of `CC(C)=NOCc1ccc(-c2noc(C(F)(F)F)n2)cc1` [Compound 4.1, N-[[4-[5-(trifluoromethyl)-1,2,4-oxadiazol-3-yl]phenyl]methoxy]propan-2-imine], the melting point fell in the range of 48 to 52 °C. Also, in data set [1], the pest or weed control at 200 ppm is not below 80%.
Take `CC1=NN(C)C(=O)C1=NOCc1ccc(-c2noc(C(F)(F)F)n2)cc1` [Compound 4.4, 2,5-dimethyl-4-[[4-[5-(trifluoromethyl)-1,2,4-oxadiazol-3-yl]phenyl]methoxyimino]pyrazol-3-one]: the melting point is 110 to 111 °C. Further, in data set [3], the inhibition of growth at 20 ppm was not below 80%.
